Experiments:
Test in all cases: relative viability (nuclei count vs DMSO), 5 days (fraction); higher = more cells survive
HCC-366 = system: HCC-366
Method in brief: (§1)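 Lung cancer cell lines, seeded in 1536-well plates, were treated the following day by pin tool with a single drug or with five library-drug doses (not always all listed) in √10 steps on top of a fixed anchor-drug dose. Cells were fixed and nuclei stained in one step after 5 days, and nuclei were counted. Relative viability is the nuclei count for treated wells divided by that for vehicle wells, reported as medians of duplicate plates.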

A549 = system: A549
Method in brief: as §1

NCI-H1437 = system: NCI-H1437
Method in brief: as §1

EBC-1 = system: EBC-1
Method in brief: as §1

Calu-6 = system: Calu-6
Method in brief: as §1

IA-LM = system: IA-LM
Method in brief: as §1

NCI-H1299 = system: NCI-H1299
Method in brief: as §1

HCC-44 = system: HCC-44
Method in brief: as §1

NCI-H1703 = system: NCI-H1703
Method in brief: as §1

With `NC(=O)Nc1cc(-c2cccc(F)c2)sc1C(=O)N[C@H]1CCCNC1` [AZD7762] + C[C@@H](Oc1cc(-c2cnn(C3CCNCC3)c2)cnc1N)c1c(Cl)ccc(F)c1Cl [Crizotinib] (partner 1 µM) the relative viability (HCC-366; first compound 0.01 µM) was 0.678, the relative viability (HCC-366; first compound 0.03162 µM) was 0.478 and the relative viability (HCC-366; first compound 0.1 µM) was 0.542. For the same compound, the relative viability (HCC-366; first compound 0.3162 µM) was 0.323, the relative viability (HCC-366; first compound 1 µM) was 0.0525 and the relative viability (A549; first compound 0.01 µM) was 0.795. The relative viability (A549; first compound 0.03162 µM) was 0.821, the relative viability (A549; first compound 0.1 µM) was 0.775 and the relative viability (A549; first compound 0.3162 µM) was 0.424. The relative viability (A549; first compound 1 µM) was 0.0696, the relative viability (NCI-H1437; first compound 0.01 µM) was 0.955 and the relative viability (NCI-H1437; first compound 0.03162 µM) was 0.787. The relative viability (NCI-H1437; first compound 0.1 µM) was 1.01, the relative viability (NCI-H1437; first compound 0.3162 µM) was 0.869 and the relative viability (NCI-H1437; first compound 1 µM) was 1.02. It also gave a relative viability (EBC-1; first compound 0.01 µM) of 0.199, a relative viability (EBC-1; first compound 0.03162 µM) of 0.209 and a relative viability (EBC-1; first compound 0.1 µM) of 0.167. For the same compound, the relative viability (EBC-1; first compound 0.3162 µM) was 0.187, the relative viability (EBC-1; first compound 1 µM) was 0.167 and the relative viability (Calu-6; first compound 0.01 µM) was 0.897. It also gave a relative viability (Calu-6; first compound 0.03162 µM) of 0.813, a relative viability (Calu-6; first compound 0.1 µM) of 0.651 and a relative viability (Calu-6; first compound 0.3162 µM) of 0.162. For the same compound, the relative viability (Calu-6; first compound 1 µM) was 0.0886, the relative viability (IA-LM; first compound 0.01 µM) was 1.04 and the relative viability (IA-LM; first compound 0.03162 µM) was 0.907. It also gave a relative viability (IA-LM; first compound 0.1 µM) of 1.26, a relative viability (IA-LM; first compound 0.3162 µM) of 0.858 and a relative viability (IA-LM; first compound 1 µM) of 0.277. For the same compound, the relative viability (NCI-H1299; first compound 0.01 µM) was 0.966, the relative viability (NCI-H1299; first compound 0.03162 µM) was 0.975 and the relative viability (NCI-H1299; first compound 0.1 µM) was 0.974. For the same compound, the relative viability (NCI-H1299; first compound 0.3162 µM) was 0.826, the relative viability (NCI-H1299; first compound 1 µM) was 0.307 and the relative viability (HCC-44; first compound 0.01 µM) was 0.892. It also gave a relative viability (HCC-44; first compound 0.03162 µM) of 0.808, a relative viability (HCC-44; first compound 0.1 µM) of 0.854 and a relative viability (HCC-44; first compound 0.3162 µM) of 0.787. For the same compound, the relative viability (HCC-44; first compound 1 µM) was 0.745, the relative viability (NCI-H1703; first compound 0.01 µM) was 0.314 and the relative viability (NCI-H1703; first compound 0.03162 µM) was 0.169. For the same compound, the relative viability (NCI-H1703; first compound 0.1 µM) was 0.136, the relative viability (NCI-H1703; first compound 0.3162 µM) was 0.0849 and the relative viability (NCI-H1703; first compound 1 µM) was 0.105.
With `NC(=O)Nc1cc(-c2cccc(F)c2)sc1C(=O)N[C@H]1CCCNC1` [AZD7762] + C[C@]1(O)C[C@@H](c2nc(-c3ccc4ccc(-c5ccccc5)nc4c3)c3c(N)nccn32)C1 [Linsitinib] (partner 1 µM) the relative viability (HCC-366; first compound 0.01 µM) was 0.587, the relative viability (HCC-366; first compound 0.03162 µM) was 0.666 and the relative viability (HCC-366; first compound 0.1 µM) was 0.607. It also gave a relative viability (HCC-366; first compound 0.3162 µM) of 0.255, a relative viability (HCC-366; first compound 1 µM) of 0.0442 and a relative viability (A549; first compound 0.01 µM) of 0.564. The relative viability (A549; first compound 0.03162 µM) was 0.577, the relative viability (A549; first compound 0.1 µM) was 0.705 and the relative viability (A549; first compound 0.3162 µM) was 0.616. For the same compound, the relative viability (A549; first compound 1 µM) was 0.494, the relative viability (NCI-H1437; first compound 0.01 µM) was 1.06 and the relative viability (NCI-H1437; first compound 0.03162 µM) was 0.991. The relative viability (NCI-H1437; first compound 0.1 µM) was 0.982, the relative viability (NCI-H1437; first compound 0.3162 µM) was 1.04 and the relative viability (NCI-H1437; first compound 1 µM) was 0.86. For the same compound, the relative viability (EBC-1; first compound 0.01 µM) was 1.01, the relative viability (EBC-1; first compound 0.03162 µM) was 0.877 and the relative viability (EBC-1; first compound 0.1 µM) was 1.03. The relative viability (EBC-1; first compound 0.3162 µM) was 0.884, the relative viability (EBC-1; first compound 1 µM) was 0.76 and the relative viability (Calu-6; first compound 0.01 µM) was 1.02. For the same compound, the relative viability (Calu-6; first compound 0.03162 µM) was 0.964, the relative viability (Calu-6; first compound 0.1 µM) was 0.944 and the relative viability (Calu-6; first compound 0.3162 µM) was 0.649. It also gave a relative viability (Calu-6; first compound 1 µM) of 0.14, a relative viability (IA-LM; first compound 0.01 µM) of 0.713 and a relative viability (IA-LM; first compound 0.03162 µM) of 0.663. The relative viability (IA-LM; first compound 0.1 µM) was 0.629, the relative viability (IA-LM; first compound 0.3162 µM) was 0.628 and the relative viability (IA-LM; first compound 1 µM) was 0.47. The relative viability (NCI-H1299; first compound 0.01 µM) was 0.99, the relative viability (NCI-H1299; first compound 0.03162 µM) was 0.995 and the relative viability (NCI-H1299; first compound 0.1 µM) was 1.04. It also gave a relative viability (NCI-H1299; first compound 0.3162 µM) of 1, a relative viability (NCI-H1299; first compound 1 µM) of 0.323 and a relative viability (HCC-44; first compound 0.01 µM) of 0.739. The relative viability (HCC-44; first compound 0.03162 µM) was 0.679, the relative viability (HCC-44; first compound 0.1 µM) was 0.724 and the relative viability (HCC-44; first compound 0.3162 µM) was 0.647. It also gave a relative viability (HCC-44; first compound 1 µM) of 0.861, a relative viability (NCI-H1703; first compound 0.01 µM) of 0.688 and a relative viability (NCI-H1703; first compound 0.03162 µM) of 0.164. For the same compound, the relative viability (NCI-H1703; first compound 0.1 µM) was 0.181, the relative viability (NCI-H1703; first compound 0.3162 µM) was 0.164 and the relative viability (NCI-H1703; first compound 1 µM) was 0.177.
With `NC(=O)Nc1cc(-c2cccc(F)c2)sc1C(=O)N[C@H]1CCCNC1` [AZD7762] + Cc1nc(NC(=O)N2CCC[C@H]2C(N)=O)sc1-c1ccnc(C(C)(C)C(F)(F)F)c1 [Alpelisib] (partner 2 µM) the relative viability (HCC-366; first compound 0.01 µM) was 0.45, the relative viability (HCC-366; first compound 0.03162 µM) was 0.521 and the relative viability (HCC-366; first compound 0.1 µM) was 0.229. It also gave a relative viability (HCC-366; first compound 0.3162 µM) of 0.189, a relative viability (HCC-366; first compound 1 µM) of 0.134 and a relative viability (A549; first compound 0.01 µM) of 0.748. It also gave a relative viability (A549; first compound 0.03162 µM) of 0.86, a relative viability (A549; first compound 0.1 µM) of 0.83 and a relative viability (A549; first compound 0.3162 µM) of 0.84. It also gave a relative viability (A549; first compound 1 µM) of 0.336, a relative viability (NCI-H1437; first compound 0.01 µM) of 0.995 and a relative viability (NCI-H1437; first compound 0.03162 µM) of 0.962. The relative viability (NCI-H1437; first compound 0.1 µM) was 1, the relative viability (NCI-H1437; first compound 0.3162 µM) was 1 and the relative viability (NCI-H1437; first compound 1 µM) was 1. The relative viability (EBC-1; first compound 0.01 µM) was 0.952, the relative viability (EBC-1; first compound 0.03162 µM) was 0.714 and the relative viability (EBC-1; first compound 0.1 µM) was 0.831. The relative viability (EBC-1; first compound 0.3162 µM) was 0.763, the relative viability (EBC-1; first compound 1 µM) was 0.367 and the relative viability (Calu-6; first compound 0.01 µM) was 1.03. For the same compound, the relative viability (Calu-6; first compound 0.03162 µM) was 0.935, the relative viability (Calu-6; first compound 0.1 µM) was 0.881 and the relative viability (Calu-6; first compound 0.3162 µM) was 0.411. For the same compound, the relative viability (Calu-6; first compound 1 µM) was 0.157, the relative viability (IA-LM; first compound 0.01 µM) was 0.828 and the relative viability (IA-LM; first compound 0.03162 µM) was 0.702. It also gave a relative viability (IA-LM; first compound 0.1 µM) of 0.885, a relative viability (IA-LM; first compound 0.3162 µM) of 1.07 and a relative viability (IA-LM; first compound 1 µM) of 0.364. It also gave a relative viability (NCI-H1299; first compound 0.01 µM) of 1.16, a relative viability (NCI-H1299; first compound 0.03162 µM) of 1.01 and a relative viability (NCI-H1299; first compound 0.1 µM) of 1.03. The relative viability (NCI-H1299; first compound 0.3162 µM) was 1.04, the relative viability (NCI-H1299; first compound 1 µM) was 0.942 and the relative viability (HCC-44; first compound 0.01 µM) was 0.818. For the same compound, the relative viability (HCC-44; first compound 0.03162 µM) was 0.751, the relative viability (HCC-44; first compound 0.1 µM) was 0.831 and the relative viability (HCC-44; first compound 0.3162 µM) was 0.755. The relative viability (HCC-44; first compound 1 µM) was 0.952, the relative viability (NCI-H1703; first compound 0.01 µM) was 0.314 and the relative viability (NCI-H1703; first compound 0.03162 µM) was 0.224. For the same compound, the relative viability (NCI-H1703; first compound 0.1 µM) was 0.231, the relative viability (NCI-H1703; first compound 0.3162 µM) was 0.164 and the relative viability (NCI-H1703; first compound 1 µM) was 0.146.
